Values of other authors, collected in patent publication US6127388A, “Azetidine, pyrrolidine and piperidine derivatives as 5-HT1D receptor agonists” (Merck Sharp & Dohme Ltd., priority 1996, dated 2000).

Settings: therapeutic doses

Structure (SMILES): CNS(=O)(=O)Cc1ccc2[nH]cc(CCN(C)C)c2c1 [sumatriptan]
- adverse cardiovascular events in humans: certain adverse cardiovascular events
